Measured values as given in the supplement of paper PMC10307832.

What was measured:
Experiment in all cases: relative viability (nuclei count vs DMSO), 5 days (fraction); higher = more cells survive
XMD13-2 + Bortezomib = compound: C1CC1C(=O)NC2=NNC3=C2C=CC(=C3)C4=CC(=CC=C4)C(=O)NC5CC5 [XMD13-2] + CC(C)C[C@H](NC(=O)[C@H](Cc1ccccc1)NC(=O)c1cnccn1)B(O)O [Bortezomib] (partner 0.002 µM)
How it was run: (§1)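 Each reported value is a median over duplicate plates. It expresses relative viability: treated-well nuclei count divided by vehicle-well nuclei count. Lung cancer cell lines in 1536-well plates were dosed by pin tool a day after seeding, alone with one drug or with a fixed anchor-drug dose plus five library-drug doses (not always all listed) in √10 steps, and nuclei were counted after 5 days.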

Dasatinib + Lapatinib = compound: Cc1nc(Nc2ncc(C(=O)Nc3c(C)cccc3Cl)s2)cc(N2CCN(CCO)CC2)n1 [Dasatinib] + CS(=O)(=O)CCNCc1ccc(-c2ccc3ncnc(Nc4ccc(OCc5cccc(F)c5)c(Cl)c4)c3c2)o1 [Lapatinib] (partner 2 µM)
How it was run: as §1

XMD13-2 + Navitoclax = compound: C1CC1C(=O)NC2=NNC3=C2C=CC(=C3)C4=CC(=CC=C4)C(=O)NC5CC5 [XMD13-2] + CC1(C)CCC(c2ccc(Cl)cc2)=C(CN2CCN(c3ccc(C(=O)NS(=O)(=O)c4ccc(N[C@H](CCN5CCOCC5)CSc5ccccc5)c(S(=O)(=O)C(F)(F)F)c4)cc3)CC2)C1 [Navitoclax] (partner 0.5 µM)
How it was run: as §1

ALW-II-49-7 + Tozasertib = compound: Cc1ccc(C(=O)Nc2cccc(C(F)(F)F)c2)cc1Nc1cncc(C(N)=O)c1 [ALW-II-49-7] + Cc1cc(Nc2cc(N3CCN(C)CC3)nc(Sc3ccc(NC(=O)C4CC4)cc3)n2)n[nH]1 [Tozasertib] (partner 0.1 µM)
How it was run: as §1

Cell Line | relative viability (XMD13-2 + Bortezomib; first compound 0.05 µM) | relative viability (XMD13-2 + Bortezomib; first compound 0.1581 µM) | relative viability (XMD13-2 + Bortezomib; first compound 0.5 µM) | relative viability (XMD13-2 + Bortezomib; first compound 1.581 µM) | relative viability (XMD13-2 + Bortezomib; first compound 5 µM) | relative viability (Dasatinib + Lapatinib; first compound 0.005 µM) | relative viability (Dasatinib + Lapatinib; first compound 0.01581 µM) | relative viability (Dasatinib + Lapatinib; first compound 0.05 µM) | relative viability (Dasatinib + Lapatinib; first compound 0.1581 µM) | relative viability (Dasatinib + Lapatinib; first compound 0.5 µM) | relative viability (XMD13-2 + Navitoclax; first compound 0.05 µM) | relative viability (XMD13-2 + Navitoclax; first compound 0.1581 µM) | relative viability (XMD13-2 + Navitoclax; first compound 0.5 µM) | relative viability (XMD13-2 + Navitoclax; first compound 1.581 µM) | relative viability (XMD13-2 + Navitoclax; first compound 5 µM) | relative viability (ALW-II-49-7 + Tozasertib; first compound 0.08 µM) | relative viability (ALW-II-49-7 + Tozasertib; first compound 0.253 µM) | relative viability (ALW-II-49-7 + Tozasertib; first compound 0.8 µM) | relative viability (ALW-II-49-7 + Tozasertib; first compound 2.53 µM) | relative viability (ALW-II-49-7 + Tozasertib; first compound 8 µM)
NCI-H727 | 0.996 | 0.936 | 0.792 | 0.982 | 1.03 | 0.588 | 0.667 | 0.581 | 0.37 | 0.277 | 0.462 | 0.362 | 0.372 | 0.374 | 0.3 | 0.599 | 0.647 | 0.642 | 0.687 | 0.538
NCI-H358 | – | – | – | – | – | 0.484 | 0.377 | 0.295 | 0.251 | 0.291 | – | – | – | – | – | 0.0887 | 0.107 | 0.11 | 0.0927 | 0.085
NCI-H1437 | 0.667 | 0.551 | 0.658 | 0.527 | 0.597 | 0.785 | 0.784 | 0.809 | 0.752 | 0.218 | 1.12 | 1.09 | 1.09 | 1.05 | 1.09 | 0.35 | 0.387 | 0.383 | 0.41 | 0.391
NCI-H441 | 0.652 | 0.49 | 0.524 | 0.464 | 0.594 | – | – | – | – | – | 0.93 | 0.685 | 0.715 | 0.615 | 0.762 | 0.709 | 0.512 | 0.751 | 0.54 | 0.478
EMC-BAC-2 | 1.17 | 1.04 | 1.12 | 1.07 | 0.923 | 0.936 | 0.708 | 0.613 | 0.667 | 0.334 | 1.29 | 1.22 | 1.21 | 1.18 | 1.27 | 0.267 | 0.273 | 0.276 | 0.203 | 0.199
NCI-H647 | 1.59 | 1.16 | 1.29 | 1.11 | 0.549 | 0.524 | 0.449 | 0.393 | 0.237 | 0.189 | 1.21 | 1.08 | 1.23 | 1.15 | 0.735 | 0.37 | 0.409 | 0.204 | 0.181 | 0.177
CAL-12T | 1.2 | – | 1.01 | 0.837 | 1.16 | 0.624 | 0.551 | 0.597 | 0.252 | 0.172 | 1.41 | 1.06 | 1 | 1.18 | 1.24 | 0.289 | 0.406 | 0.389 | 0.274 | 0.308
NCI-H1792 | 1.16 | 0.996 | 1 | 0.927 | 1.15 | 0.885 | 0.859 | 0.907 | 0.673 | 0.364 | 0.746 | 0.591 | 0.715 | 0.491 | 0.886 | – | – | – | – | –
H3255 | 1 | 0.75 | 0.817 | 0.575 | 0.764 | 0.303 | 0.212 | 0.208 | 0.155 | 0.204 | 0.709 | 0.564 | 0.518 | 0.444 | 0.526 | 0.724 | 0.613 | 0.675 | 0.625 | 0.42
HCC-78 | 0.464 | 0.551 | 0.349 | 0.553 | 0.516 | 0.359 | 0.694 | 0.696 | 0.478 | 0.19 | 0.851 | 0.641 | 0.817 | 0.582 | 0.671 | 0.482 | 0.396 | – | 0.43 | 0.505
EBC-1 | 0.61 | 0.523 | 0.552 | 0.531 | 0.299 | 0.248 | 0.217 | 0.236 | 0.233 | 0.252 | 0.563 | 0.375 | 0.404 | 0.232 | 0.176 | – | – | – | – | –
NCI-H2405 | 1.07 | 0.964 | 0.957 | 0.926 | 0.991 | 0.684 | 0.81 | 0.465 | 0.222 | 0.17 | 0.871 | 0.727 | 0.9 | 0.767 | 0.916 | 0.73 | 0.692 | 0.687 | 0.642 | 0.547
A549 | – | – | – | – | – | 0.955 | 0.824 | 0.83 | 0.673 | 0.194 | 1.53 | 1.23 | 1.13 | 1.16 | 1.17 | – | – | – | – | –
NCI-H3122 | 1.06 | 1.05 | 1.02 | 1.1 | 0.985 | 0.999 | 1.02 | 1.02 | 1.01 | 0.84 | 0.996 | 1.02 | 1.02 | 1.01 | 1.01 | 0.437 | 0.202 | 0.371 | – | 0.373
NCI-H1563 | 0.949 | 0.908 | 0.816 | 0.764 | 0.86 | 0.868 | 0.708 | 0.758 | 0.656 | 0.506 | – | – | – | – | – | – | – | – | – | –
HCC-44 | 0.899 | 0.92 | 0.897 | 0.804 | 0.966 | 1.03 | 0.942 | 1.07 | 0.844 | 0.555 | 1.01 | 1.03 | 1.12 | 0.949 | 1 | – | 0.908 | 0.874 | 0.109 | 0.664
PC-3 [JPC-3] | 0.807 | 0.778 | 0.884 | 0.871 | 0.867 | 0.422 | 0.393 | 0.444 | 0.331 | 0.335 | 0.819 | 0.843 | 0.827 | 0.781 | 0.693 | 0.653 | 0.946 | 0.867 | 0.776 | 0.843
NCI-H1993 | 1.42 | 1.08 | 1.02 | 0.972 | 1.04 | 0.761 | 0.771 | 0.776 | 0.731 | 0.737 | 0.911 | 0.834 | 0.884 | 0.845 | 0.673 | 0.524 | 0.605 | 0.567 | 0.629 | 0.632
